Reference: patent publication US20250041231A1, “5-AMINOLEVULINIC ACID FOR THE LOCAL TREATMENT OF INFLAMMATORY BOWEL DISEASE” (Intract Pharma Limited, priority 2019, published 2025)
“Also recorded” adds a separate entry of the source.

Assays:
[1] = Ussing chamber: mouse colon tissue penetration and permeability of 5-ALA with SFC, metabolite formation; format: in vitro ADME, C57BL6 mice; conditions: mouse colon vs human colon, 3 hours
Procedure: (§1) The chambers are made of solid acrylic and supports the tissue membrane in such a way that each side of the membrane is isolated and faces a different chamber representing the luminal (apical) and blood (basal) compartments. The working system consists of a unit to fit a maximum of six vertical chambers, a gas manifold for carbogen purging (95% O2, 5% CO2) and a heater block to maintain the temperature of the chambers at 37° C. during the experiments with the use of a circulating water bath. The chambers are two-piece assemblies held together by a high spring-tension retaining ring to ensure leak-free operation during the experiments.
(§2) The EVOM™ voltohmmeter (World Precision Instruments, Inc., Hertfordshire, UK) and Ag/AgCl electrodes (Harvard Apparatus, Cambridge, UK) were used to measure the trans-epithelial electrical resistance (TEER) of the tissue samples. TEER monitors the presence of functional tight junctions, which are responsible for the barrier function and which limit Paracellular permeation of water and solutes. […]
(§3) For the tissue penetration studies, the freshly excised colon of human subject or C57BL6 mice was collected and transferred to an ice-cold solution of Krebs-Bicarbonate Ringer solution (KBr) of pH 7.4. […] The TEER was continuously monitored during the experiment to confirm the viability and integrity of the tissue.

[2] = Mouse colon model (faecal slurry): stability of 5-ALA with SFC and formation of PpIX; format: in vitro ADME, C57BL6 mice
Procedure: (§4) A mouse colonic model based on a mixed fecal inoculum was used to mimic the luminal environment of the mouse large intestine. An anaerobic workstation (Electrotek 500TG™ workstation, Electrotek, West Yorkshire, UK) maintained at 37° C. and 70% relative air humidity was used to set up the model. Three healthy male C57BL6 mice were sacrificed and the fecal contents were collected. The fecal material was transferred in the anaerobic workstation and diluted with freshly prepared basal medium to obtain 20% w/w slurry by homogenization. The basal media provides nutrients and growth factors to the microbiota allowing viability for upto 24 hours. […]
(§5) For 5-ALA analysis, a 150×4.6-mm Jupiter 5 μm 300 Å (Phenomenex, Torrance, CA) C18 column was used using 70% water (0.1% TFA) and 30% acetonitrile (0.1% TFA) as the mobile phase for elution, at a flow rate of 1 ml/min. The analysis was operated at room temperature and fluorescence detection wavelength was set at 395/480 nm excitation/emission. […]
(§6) For PpIX analysis, a 150×4.6-mm Aeris 3.6 μm 100 Å (Phenomenex, Torrance, CA) C18 column was used using 70% acetonitrile and 30% 10 mM TBA solution (pH 7.5) as the mobile phase at a flow rate of 1 ml/min. The analysis was operated at room temperature and fluorescence detection wavelength was set at 400/630 nm excitation/emission. […]

[3] = tested on: DSS induced colitis mouse model
[4] = Ussing chamber: human colon tissue penetration and permeability of 5-ALA with SFC, metabolite formation; format: in vitro ADME
Procedure: as §1, §2, §3

[5] = Human colon model (faecal slurry): stability of 5-ALA with SFC and formation of PpIX; format: in vitro ADME
Procedure: as §4, with “human” for “mouse”, “model.” for “model. Three healthy male C57BL6 mice were sacrificed and the fecal contents were collected.”, “up to” for “upto”, “hours. The homogenized bacterial media was sieved through an open mesh fabric (SefarNitex™, pore size 350 μm) to remove any nonhomogeneous fibrous material.” for “hours.”
as §5, §6

[6] = intra-colonic vs oral, 10 and 100 mg/kg, day 10
[7] = oral vs intra-colonic dosing, day 10

Permeability of 5-ALA across the tissue [1]: higher
Stability of 5-ALA in mouse colon fluid ([2]; 6 mg/ml 5-ALA + 1 mg/ml SFC, 10% w/w mouse faecal slurry, up to 24 hrs): completely stable
Conversion of 5-ALA into PpIX in mouse colon fluid ([2]; in the presence of SFC): no conversion
Bilirubin expression in the colon tissue and plasma [3, 7]: no significant difference
Biliverdin expression in the colon tissue and plasma [3, 7]: no significant difference
SMILES: NCC(=O)CCC(=O)O [5-ALA, 5-aminolevulinic acid]
Reduction of expression of IL-1β in the colon tissue and plasma [3, 6]: significantly better than after oral administration
Reduction of expression of IL-6 in the colon tissue and plasma [3, 6]: significantly better than after oral administration
Reduction of expression of TNF-α in the colon tissue and plasma [3, 6]: significantly better than after oral administration
Expression of HO-1 in the colon tissue and plasma ([3]; oral vs intra-colonic dosing): no significant difference
Expression of 5-ALA metabolite PpIX in the plasma ([3]; oral vs intra-colonic dosing, 10 and 100 mg/kg): Significantly enhanced expression of PpIX was observed in the plasma after oral dosing, but not intra-colonic dosing
Reduction in inflammatory cytokines compared with 5-ASA ([3]; vs 5-ASA 50 mg/kg oral and intra-colonic): superior to 5-ASA given both orally and intra-colonic
Tissue conc. of 5-ALA ([4]; human colon vs mouse colon, Ussing chamber, 3 hours): higher in human colon compared to mouse colon
Penetration of 5-ALA into colon tissue ([4]; human colonic tissue in vitro): readily able to penetrate effectively into colon tissue
Stability of 5-ALA in human colon fluid ([5]; 6 mg/ml 5-ALA + 1 mg/ml SFC, 10% w/w human faecal slurry, up to 24 hrs): completely stable; also recorded: very stable
Conversion of 5-ALA into PpIX in human colon fluid ([5]; in the presence of SFC): no conversion; also recorded: no metabolism
